Test results taken from paper PMC10287566, “Signaling-specific inhibition of the CB1 receptor for cannabis use disorder: phase 1 and phase 2a randomized trials” (Nature Medicine, 2023).

Key:
dogs = test: 91-d repeated oral toxicity study in dogs (GLP); type: in vivo
[1] = 91-d repeated oral toxicity study in dogs (GLP); type: in vivo; details: both sexes, Beagle, dog, in vivo
volunteers with CUD = test: Phase 2a study, precipitated withdrawal, mood and sleep; type: in vivo, human
Procedure: In addition to general safety assessment of vital signs, clinical chemistry and AEs, symptoms of cannabis withdrawal were assessed by daily measures of food intake, body weight, sleep efficiency[23],[41],[42] and mood[22]. […]
We measured seven subscales of the 44-item VAS (‘Miserable’, ‘Anxious’, ‘Tired’, ‘Confused’, ‘Irritable’, ‘Social’ and ‘Bad effect’). […] Ratings were then done repeatedly (five times at 20, 40, 60, 90 and 120 min after cannabis).

squirrel monkeys = test: THC-induced reinstatement of THC seeking in squirrel monkeys; type: in vivo, Saimiri sciureus
Source text: Two experimental models were used: (1) THC i.v. self-administration and (2) THC-induced reinstatement of THC seeking. These two approaches were used to model the maintenance of daily cannabis use and cannabis seeking after a period of abstinence.
For the THC-induced reinstatement of THC seeking, the monkeys underwent daily extinction sessions during which lever presses led to vehicle infusions and the visual cues previously paired with THC infusions but not THC. […] THC injections were given immediately before the start of the test sessions. During testing, lever presses (FR10) continued to produce only vehicle injections and the THC-paired cues. […] Recommendations from the Guide for the Care and Use of Laboratory Animals (8th edition) and guidelines of the Institutional Animal Care and Use Committee of the Intramural Research Program, NIDA, NIH, DHHS, were followed. Animals were maintained in facilities fully accredited by the AAALAC. Operation of the experimental chambers and data collection were controlled by IBM computers using the MED Associates MED-PC software package.

mice [2] = test: THC-induced impairment of reality testing; type: in vivo
THC behavioral effects = test: Inhibition of THC effects in vivo (summary over behavioral models); design: species or system mice, rats and non-human primates
Procedure: Statistical analyses were carried out using GraphPad Prism, Statistica (Statsoft) or SigmaPlot (Systat Software) software. […] When appropriate, significant main effects were analyzed by subsequent multiple paired comparisons or multiple comparisons versus the control group using the appropriate post hoc test (Dunnett, Tukey or Sidak test). Different but similar post hoc tests were used because the experiments were performed by independent research groups that used similar but not identical statistical procedures. […] For non-parametric analysis, a Kruskal–Wallis ANOVA was used, followed, when appropriate, by the Mann–Whitney test for pairwise comparisons. Unless otherwise stated, all the performed statistical tests were two-sided. The ID50 or IC50 was estimated by nonlinear regression using the ‘log(inhibitor) versus response’ equation model with GraphPad Prism software. All results are expressed as mean ± s.e.m. The significance threshold was set at P < 0.05.

CYP and phase II enzymes = test: Drug metabolic pathways (CYP and phase II enzymes), metabolites; type: in vitro ADME
mice [3] = test: THC-induced impairment of long-term memory (object recognition); type: in vivo
[4] = end of drug withdrawal period (week 18)
[5] = Reinstatement of THC self-administration

COc1ccc(CO[C@H]2CC[C@@]3(C)C(=CC[C@H]4[C@@H]5CC[C@H](C(C)=O)[C@@]5(C)CC[C@@H]43)C2)cc1 [AEF0117, 3β-(4-methoxybenzyloxy)pregn-5-en-20-one]
change in eosinophil count (dogs; all dose groups, week 5): -41%
change in eosinophil count (dogs; all dose groups, week 14): -54%
change in lymphocyte count (dogs; all dose groups, week 14): -17 to -24%
change in eosinophil count (dogs; [4]): -66%
change in lymphocyte count (dogs; [4]): -19%
change in thymus weight vs vehicle (dogs; end of treatment period): -15 to -24%
NOAEL at 91 d ([1]; 91-d repeated oral): > 65 mg/kg/day
NOAEL at 91 day ([1]; oral, 91-day, highest dose tested): 65 mg/kg/day
'Social' subscale rating after smoking cannabis, mean (SEM) (volunteers with CUD; 0.06 mg cohort, Day 1): 66.9 (4.3)
'Social' subscale, AEF0117-Placebo (volunteers with CUD; 0.06 mg cohort, Day 1): -5.9
'Social' subscale rating after smoking cannabis, mean (SEM) (volunteers with CUD; 0.06 mg cohort, Day 2): 67.4 (5.8)
'Social' subscale, AEF0117-Placebo (volunteers with CUD; 0.06 mg cohort, Day 2): -3.1
'Social' subscale rating after smoking cannabis, mean (SEM) (volunteers with CUD; 0.06 mg cohort, Day 3): 64.4 (6.0)
'Social' subscale, AEF0117-Placebo (volunteers with CUD; 0.06 mg cohort, Day 3): -6.6
'Social' subscale rating after smoking cannabis, mean (SEM) (volunteers with CUD; 0.06 mg cohort, Day 4): 63.9 (5.6)
'Social' subscale, AEF0117-Placebo (volunteers with CUD; 0.06 mg cohort, Day 4): -7.8
'Social' subscale rating after smoking cannabis, mean (SEM) (volunteers with CUD; 0.06 mg cohort, Day 5): 64.0 (5.8)
'Social' subscale, AEF0117-Placebo (volunteers with CUD; 0.06 mg cohort, Day 5): -6.0
'Social' subscale rating after smoking cannabis, mean (SEM) (volunteers with CUD; 1 mg cohort, Day 1): 71.9 (5.5)
'Social' subscale, AEF0117-Placebo (volunteers with CUD; 1 mg cohort, Day 1): 3.9
'Social' subscale rating after smoking cannabis, mean (SEM) (volunteers with CUD; 1 mg cohort, Day 2): 71.4 (5.2)
'Social' subscale, AEF0117-Placebo (volunteers with CUD; 1 mg cohort, Day 2): 1.3
'Social' subscale rating after smoking cannabis, mean (SEM) (volunteers with CUD; 1 mg cohort, Day 3): 71.1 (5.6)
'Social' subscale, AEF0117-Placebo (volunteers with CUD; 1 mg cohort, Day 3): 0.1
'Social' subscale rating after smoking cannabis, mean (SEM) (volunteers with CUD; 1 mg cohort, Day 4): 67.0 (5.9)
'Social' subscale, AEF0117-Placebo (volunteers with CUD; 1 mg cohort, Day 4): -6.0
'Social' subscale rating after smoking cannabis, mean (SEM) (volunteers with CUD; 1 mg cohort, Day 5): 69.5 (6.6)
'Social' subscale, AEF0117-Placebo (volunteers with CUD; 1 mg cohort, Day 5): -1.6
difference between AEF0117 and placebo on the 'Social' subscale (volunteers with CUD; 100-mm scale, after cannabis): < 8 mm
precipitation of cannabis withdrawal (volunteers with CUD; Phase 2a, 0.06 and 1 mg): little to suggest that AEF0117 precipitated cannabis withdrawal
'Irritable' subscale, effect of treatment (volunteers with CUD; Treatment x Day x Time, before cannabis): small but significant effect
reinstatement of THC seeking (squirrel monkeys; 1.5 µg kg^−1 oral): significantly reduced
% Inhibition (squirrel monkeys; [5]): 80%
ID100 (squirrel monkeys; [5]): ≤ 1.5 µg/kg
THC impairment in reality testing (mice [2]): inhibited
% Inhibition (mice [2]; Impairment of reality testing): 100%
ID100 (mice [2]; Impairment of reality testing): ≤ 15 µg/kg
most observed ID50 for inhibiting the effects of THC (THC behavioral effects; mice and non-human primates, oral): 5 µg/kg
most observed ID50 for inhibiting the effects of THC (THC behavioral effects; mice, rats and non-human primates): 5 µg/kg
ID100 for THC effects in fewer cases (THC behavioral effects; oral, 3 h before THC): 1.5 µg/kg
most frequently observed ID100 for THC effects (THC behavioral effects; oral, 3 h before THC): 15 µg/kg
interaction with major drug metabolic pathways (CYP and phase II enzymes) (CYP and phase II enzymes): does not modify the activity of, nor is it notably metabolized by
THC's effects on long-term object recognition memory (mice [3]): inhibited
% Inhibition (mice [3]; Impairment of long-term memory): 100%
ID100 (mice [3]; Impairment of long-term memory): ≤ 5 µg/kg
